Results on six compounds are retold here after patent US20260108546A1 (ELI LILLY AND COMPANY, priority 2024, published 2026).

For this assay, the target named is T1, hGIP-R (Homo sapiens, UniProt P48546).
T1 construct: expressed in transfected cells; host or cells: HEK-293 clonal cell lines
T1 sequence (P48546 22-466): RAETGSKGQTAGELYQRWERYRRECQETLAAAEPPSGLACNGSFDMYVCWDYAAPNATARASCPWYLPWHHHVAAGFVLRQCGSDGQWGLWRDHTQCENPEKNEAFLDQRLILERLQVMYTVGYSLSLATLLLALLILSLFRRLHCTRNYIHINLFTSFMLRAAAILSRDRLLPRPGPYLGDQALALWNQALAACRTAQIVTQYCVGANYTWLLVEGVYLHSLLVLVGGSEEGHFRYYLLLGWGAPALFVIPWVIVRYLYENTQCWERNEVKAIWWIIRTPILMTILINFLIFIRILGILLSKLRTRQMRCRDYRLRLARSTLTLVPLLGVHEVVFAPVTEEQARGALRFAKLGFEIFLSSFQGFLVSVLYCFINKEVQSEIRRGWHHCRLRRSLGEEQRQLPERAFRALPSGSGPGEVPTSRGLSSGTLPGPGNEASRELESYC
The experiment in a line: Functional hGIP-R Assay (cAMP formation, HTRF). The format is cell-based. To be noted: for Emax: cAMP efficacy, percent of maximal response to GIP(1-42)OH, 37° C., 0.1% bovine casein, arithmetic mean ± SEM; for EC50: cAMP potency, HEK-293 cells expressing hGIP-R, incubated at 37° C. in the presence of 0.1% bovine casein, geometric mean, read-out: Human GIP-R EC50, nM (SEM, n). In outline: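 HEK-293 cells expressing hGIP-R were given a 20-point compound series in DMEM with 0.1% casein, 250 μM IBMX, 1% DMSO, 30 min at 37 °C. cAMP was read by HTRF against a standard curve, expressed as % of human GIP (1-42) OH maximum; EC50 and Emax came from four-parameter fits.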
A general note: Cyclic AMP is a second messenger, typically raised through Gs and lowered through Gi signalling.

A word on the Emax: it is the maximal effect, on the per cent scale that the assay sets. By EC50 is commonly meant the concentration needed to bring the measured effect to its halfway point. As for `CN(C(=O)[C@H]1C[C@@H]1c1ccc(-c2cnc3nn(C)cc3c2)cc1)[C@H](Cc1cnn(C)c1)C(=O)NC(C)(C)Cn1nc(C(F)(F)F)cc1-c1ccc(=O)n(C)c1` [Example 31, (1S,2S)-N-Methyl-N-((R)-1-((2-methyl-1-(5-(1-methyl-6-oxo-1,6-dihydropyridin-3-yl)-3-(trifluoromethyl)-1H-pyrazol-1-yl)propan-2-yl)amino)-3-(1-methyl-1H-pyrazol-4-yl)-1-oxopropan-2-yl)-2-(4-(2-methyl-2H-pyrazolo[3,4-b]pyridin-5-yl)phenyl) cyclopropane-1-carboxamide], the maximal response (Emax) stood at 117 ± 4.92% and the EC50 stood at 152 nM.
For `CN(C(=O)[C@H]1C[C@@H]1c1ccc(-c2cnc3nn(C)cc3c2)cc1)[C@H](Cc1cnn(C)c1)C(=O)NC(C)(C)Cn1nc(C(F)(F)F)cc1-c1ccc[nH]c1=O` [Example 32, (1S,2S)-N-Methyl-N-((R)-1-((2-methyl-1-(5-(2-oxo-1,2-dihydropyridin-3-yl)-3-(trifluoromethyl)-1H-pyrazol-1-yl)propan-2-yl)amino)-3-(1-methyl-1H-pyrazol-4-yl)-1-oxopropan-2-yl)-2-(4-(2-methyl-2H-pyrazolo[3,4-b]pyridin-5-yl)phenyl) cyclopropane-1-carboxamide] the same measures were 119% and 93.5 nM.
For `CN(C(=O)[C@H]1C[C@@H]1c1ccc(-c2cnc3nn(C)cc3c2)cc1)[C@H](Cc1cnn(C)c1)C(=O)NC(C)(C)Cn1nc(C(F)(F)F)cc1-c1cccc(=O)[nH]1` [Example 33, (1S,2S)-N-Methyl-N-((R)-1-((2-methyl-1-(5-(6-oxo-1,6-dihydropyridin-2-yl)-3-(trifluoromethyl)-1H-pyrazol-1-yl)propan-2-yl)amino)-3-(1-methyl-1H-pyrazol-4-yl)-1-oxopropan-2-yl)-2-(4-(2-methyl-2H-pyrazolo[3,4-b]pyridin-5-yl)phenyl) cyclopropane-1-carboxamide] the same measures were 108% and 133 nM.
For `CN(C(=O)[C@H]1C[C@@H]1c1ccc(-c2cnc3nccn3c2)cc1)[C@H](Cc1cnn(C)c1)C(=O)NC(C)(C)Cn1nc(C(F)(F)F)cc1-c1ccc(=O)n(C)c1` [Example 34, (1S,2S)-2-(4-(imidazo[1,2-a]pyrimidin-6-yl)phenyl)-N-methyl-N-((R)-1-((2-methyl-1-(5-(1-methyl-6-oxo-1,6-dihydropyridin-3-yl)-3-(trifluoromethyl)-1H-pyrazol-1-yl)propan-2-yl)amino)-3-(1-methyl-1H-pyrazol-4-yl)-1-oxopropan-2-yl)cyclopropane-1-carboxamide] the same measures were 113 ± 12.3% and 183 nM.
As for `CN(C(=O)[C@H]1C[C@@H]1c1ccc(NC(=O)C2CCC(F)(F)CC2)cc1)[C@H](Cc1cnn(C)c1)C(=O)NC(C)(C)Cn1nc(C(F)(F)F)cc1-c1ccc(=O)n(C)c1` [Example 35, 4,4-Difluoro-N-(4-((1S,2S)-2-(methyl((R)-1-((2-methyl-1-(5-(1-methyl-6-oxo-1,6-dihydropyridin-3-yl)-3-(trifluoromethyl)-1H-pyrazol-1-yl)propan-2-yl)amino)-3-(1-methyl-1H-pyrazol-4-yl)-1-oxopropan-2-yl)carbamoyl)cyclopropyl)phenyl)cyclohexane-1-carboxamide], the Emax came out at 75 ± 4.1% and the EC50 came to 135 nM.
Take `CN(C(=O)[C@H]1C[C@@H]1c1ccc(NC(=O)Nc2ccc(F)cc2)cc1)[C@H](Cc1cnn(C)c1)C(=O)NC(C)(C)Cc1ccc(F)cc1` [Example 36, (1S,2S)-N-((R)-1-((1-(4-Fluorophenyl)-2-methylpropan-2-yl)amino)-3-(1-methyl-1H-pyrazol-4-yl)-1-oxopropan-2-yl)-2-(4-(3-(4-fluorophenyl)ureido)phenyl)-N-methylcyclopropane-1-carboxamide]: the Emax is 94 ± 11.1% and the EC50 amounted to 104 nM.
